Data set [1] in a line: Solubility in PBS. The data set is classed as physicochemical. The gist of the method:
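Read-out is the HPLC peak area of the supernatant from ultracentrifuged PBS solution, scaled against a 50 μM peptide DMSO injection; value reported as [(PBS area)/(DMSO area)]*50 uM.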

In data set [2] the target is T1, full-length beta-Catenin (Uniprot ID P35222) (Homo sapiens, UniProt P35222).
T1 construct: 10 nM full-length beta-Catenin (Uniprot ID P35222)
T1 sequence (P35222 1-781): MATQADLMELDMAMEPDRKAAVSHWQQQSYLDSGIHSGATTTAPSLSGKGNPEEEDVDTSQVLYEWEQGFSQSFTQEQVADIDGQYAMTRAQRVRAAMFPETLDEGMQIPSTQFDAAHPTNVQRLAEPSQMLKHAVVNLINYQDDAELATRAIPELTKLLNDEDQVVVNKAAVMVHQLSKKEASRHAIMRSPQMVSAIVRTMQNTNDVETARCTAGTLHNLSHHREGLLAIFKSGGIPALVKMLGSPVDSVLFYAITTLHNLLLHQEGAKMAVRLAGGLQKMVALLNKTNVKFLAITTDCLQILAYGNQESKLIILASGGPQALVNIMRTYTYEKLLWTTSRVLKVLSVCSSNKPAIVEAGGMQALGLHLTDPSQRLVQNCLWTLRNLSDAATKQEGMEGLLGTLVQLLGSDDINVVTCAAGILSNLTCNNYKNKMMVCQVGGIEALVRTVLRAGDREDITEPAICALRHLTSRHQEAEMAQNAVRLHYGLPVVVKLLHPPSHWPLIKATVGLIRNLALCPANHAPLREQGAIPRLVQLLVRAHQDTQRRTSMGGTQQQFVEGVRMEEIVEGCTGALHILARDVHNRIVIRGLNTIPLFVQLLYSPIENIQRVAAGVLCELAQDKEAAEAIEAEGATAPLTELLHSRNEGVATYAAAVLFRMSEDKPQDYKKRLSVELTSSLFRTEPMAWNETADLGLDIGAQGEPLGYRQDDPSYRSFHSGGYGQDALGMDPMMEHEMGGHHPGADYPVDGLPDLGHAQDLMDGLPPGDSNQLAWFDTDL
The experiment in a line: Fluorescence polarization IC50 (beta-catenin / 5FAM-TCF4 10-53 competition). The data set is classed as binding.

Data set [3] can be described thus: CHI Log D procedure. To be noted: pH 7.4. The class given is physicochemical.
[4] abbreviates: fluorescence polarization, beta-catenin, read-out: FP EC50.

Each structure is given as a SMILES string. ≈ marks a conversion by molar mass, not a printed value. Like-named read-outs stand apart in the source and are kept apart here.

Usually Solubility stands for how much of the substance goes into solution per volume. Read a low Solubility as little dissolved substance.

For the molecule `CC(=O)N1CCC[C@]12CC=CCCCC1(CCCC=CCCCOC(=O)N3CC[C@@](C(=O)N[C@@H](Cc4ccsc4)C(=O)N[C@@H](Cc4csc5ccccc45)C(=O)N[C@@H](CO)C(N)=O)(C3)NC(=O)[C@H](CO)NC(=O)[C@H](Cc3ccccc3)NC(=O)[C@H](C)NC(=O)[C@H](C)NC(=O)[C@H](CN(CC(=O)O)CC(F)(F)F)NC(=O)[C@H](CC(=O)O)NC1=O)NC(=O)[C@H](CC(C)(C)C)NC(=O)[C@H](CC(=O)O)NC2=O` (stereo partly drawn) [I-955, Ac-PL3-Asp-Npg-B5-Asp-TfeGA-Ala-Ala-Phe-Ser-PyrS2-3Thi-BztA-Ser-NH2], the “Solubility” value in data set [1] stood at 45 µM (≈ 88.3 µg/mL). In addition, the IC50 in data set [2] (setting [4]) and in data set [2] (read-out: beta-Catenin FP IC50) was 1.2 µM each time. Further, in data set [3], the “CHI Log D” value was 1.998.
As for `CC(=O)N1CCC[C@]12CC=CCCCC1(CCCC=CCCCOC(=O)N3CC[C@@](C(=O)N[C@@H](Cc4ccsc4)C(=O)N[C@@H](Cc4csc5ccccc45)C(=O)N[C@@H](CO)C(N)=O)(C3)NC(=O)[C@H]([C@@H](C)O)NC(=O)[C@H](Cc3ccccc3)NC(=O)[C@H](C)NC(=O)[C@H](C)NC(=O)[C@H](CN(CC(=O)O)CC(F)(F)F)NC(=O)[C@H](CC(=O)O)NC1=O)NC(=O)[C@H](CC(C)(C)C)NC(=O)[C@H](CC(=O)O)NC2=O` (stereo partly drawn) [I-956, Ac-PL3-Asp-Npg-B5-Asp-TfeGA-Ala-Ala-Phe-Thr-PyrS2-3Thi-BztA-Ser-NH2], the “Solubility” value in data set [1] was found to be 46 µM (≈ 90.9 µg/mL). Further, the IC50 in data set [2] (setting [4]) and in data set [2] (read-out: beta-Catenin FP IC50) was 1.09 µM in each case. Moreover, in data set [3], the “CHI Log D” value is 1.875.
Take `CC(=O)N1CCC[C@]12CC=CCCCC1(CCCC=CCCCOC(=O)N3CC[C@@](C(=O)N[C@@H](Cc4ccsc4)C(=O)N[C@@H](Cc4csc5ccccc45)C(=O)N[C@@H](CO)C(N)=O)(C3)NC(=O)[C@H]([C@@H](C)O)NC(=O)[C@H](Cc3ccccc3)NC(=O)[C@H](C)NC(=O)[C@H](C)NC(=O)[C@H](CN(CC(=O)O)CC(F)(F)F)NC(=O)[C@H](CC(=O)O)NC1=O)NC(=O)[C@H](CC(C)(C)C)NC(=O)[C@H](CC(=O)O)NC2=O` (stereo partly drawn) [I-957, Ac-PL3-Asp-Npg-B5-Asp-TfeGA-Ala-Ala-Phe-Thr-PyrS2-3Thi-BztA-Ser-NH2]: the “Solubility” value in data set [1] amounted to 46 µM (≈ 90.9 µg/mL). The IC50 in data set [2] (setting [4]) and in data set [2] (read-out: beta-Catenin FP IC50) was 1.43 µM in each case. Further, the “CHI Log D” value in data set [3] is on record as −0.043.
With `CC(=O)N1CCC[C@]12CC=CCCCC1(CCCC=CCCCOC(=O)N3CC[C@@](C(=O)N[C@@H](Cc4ccsc4)C(=O)N[C@@H](Cc4csc5ccccc45)C(=O)N[C@@H](CO)C(N)=O)(C3)NC(=O)[C@H](CCO)NC(=O)[C@H](Cc3ccccc3)NC(=O)[C@H](C)NC(=O)[C@H](C)NC(=O)[C@H](CN(CC(=O)O)CC(F)(F)F)NC(=O)[C@H](CC(=O)O)NC1=O)NC(=O)[C@H](CC(C)(C)C)NC(=O)[C@H](CC(=O)O)NC2=O` (stereo partly drawn) [I-958, Ac-PL3-Asp-Npg-B5-Asp-TfeGA-Ala-Ala-Phe-Hse-PyrS2-3Thi-BztA-Ser-NH2], the “Solubility” value in data set [1] was found to be 47 µM (≈ 92.8 µg/mL). Also, the IC50 in data set [2] (setting [4]) and in data set [2] (read-out: beta-Catenin FP IC50) was 0.606 µM in each case. Further, the “CHI Log D” value in data set [3] worked out at 1.417.
Turning to `CC(=O)N1CCC[C@]12CC=CCCCC1(CCCC=CCCCOC(=O)N3CC[C@@](C(=O)N[C@@H](Cc4ccsc4)C(=O)N[C@@H](Cc4csc5ccccc45)C(=O)N[C@@H](CO)C(N)=O)(C3)NC(=O)[C@H](CCO)NC(=O)[C@H](Cc3ccccc3)NC(=O)[C@H](C)NC(=O)[C@H](C)NC(=O)[C@H](CN(CC(=O)O)CC(F)(F)F)NC(=O)[C@H](CC(=O)O)NC1=O)NC(=O)[C@H](CC(C)(C)C)NC(=O)[C@H](CC(=O)O)NC2=O` (stereo partly drawn) [I-959, Ac-PL3-Asp-Npg-B5-Asp-TfeGA-Ala-Ala-Phe-Hse-PyrS2-3Thi-BztA-Ser-NH2], in data set [1], the “Solubility” value was determined as 48 µM (≈ 94.8 µg/mL). Besides, the IC50 in data set [2] (setting [4]) and in data set [2] (read-out: beta-Catenin FP IC50) was 0.881 µM in each case. Moreover, the “CHI Log D” value in data set [3] is recorded as −0.036.
Consider `CC(=O)N1CCC[C@]12CC=CCCCC1(CCCC=CCCCOC(=O)N3CC[C@@](C(=O)N[C@@H](Cc4ccsc4)C(=O)N[C@@H](Cc4csc5ccccc45)C(=O)N[C@@H](CO)C(N)=O)(C3)NC(=O)[C@H](CC(C)C)NC(=O)[C@H](Cc3ccccc3)NC(=O)[C@H](C)NC(=O)[C@H](C)NC(=O)[C@H](CN(CC(=O)O)CC(F)(F)F)NC(=O)[C@H](CC(=O)O)NC1=O)NC(=O)[C@H](CC(C)(C)C)NC(=O)[C@H](CC(=O)O)NC2=O` (stereo partly drawn) [I-960, Ac-PL3-Asp-Npg-B5-Asp-TfeGA-Ala-Ala-Phe-Leu-PyrS2-3Thi-BztA-Ser-NH2], for which the “Solubility” value in data set [1] amounted to 13 µM (≈ 25.8 µg/mL). For the same molecule, the IC50 in data set [2] (setting [4]) and in data set [2] (read-out: beta-Catenin FP IC50) was 0.336 µM throughout. For the same molecule, the “CHI Log D” value in data set [3] was 2.06.
Consider `CC(=O)N1CCC[C@]12CC=CCCCC1(CCCC=CCCCOC(=O)N3CC[C@@](C(=O)N[C@@H](Cc4ccsc4)C(=O)N[C@@H](Cc4csc5ccccc45)C(=O)N[C@@H](CO)C(N)=O)(C3)NC(=O)[C@H](CC(C)C)NC(=O)[C@H](Cc3ccccc3)NC(=O)[C@H](C)NC(=O)[C@H](C)NC(=O)[C@H](CN(CC(=O)O)CC(F)(F)F)NC(=O)[C@H](CC(=O)O)NC1=O)NC(=O)[C@H](CC(C)(C)C)NC(=O)[C@H](CC(=O)O)NC2=O` (stereo partly drawn) [I-961, Ac-PL3-Asp-Npg-B5-Asp-TfeGA-Ala-Ala-Phe-Leu-PyrS2-3Thi-BztA-Ser-NH2], for which the “Solubility” value in data set [1] was 10 µM (≈ 19.9 µg/mL). The IC50 in data set [2] (setting [4]) and in data set [2] (read-out: beta-Catenin FP IC50) was 0.357 µM each time. Besides, the “CHI Log D” value in data set [3] is recorded as 2.123.
In the case of `CCN(CC(=O)O)C[C@@H]1NC(=O)[C@H](CC(=O)O)NC(=O)C2(CCCC=CCCCOC(=O)N3CC[C@@](C(=O)N[C@@H](Cc4ccsc4)C(=O)N[C@@H](Cc4csc5ccccc45)C(=O)N[C@@H](CCC(N)=O)C(N)=O)(C3)NC(=O)[C@H](CC(N)=O)NC(=O)[C@H](Cc3ccccc3)NC(=O)[C@H](C)NC(=O)[C@H](C)NC1=O)CCCC=CC[C@]1(CCCN1C(C)=O)C(=O)N[C@@H](CC(=O)O)C(=O)N[C@@H](CC(C)(C)C)C(=O)N2` (stereo partly drawn) [I-964, Ac-PL3-Asp-Npg-B5-Asp-EtGA-Ala-Ala-Phe-Asn-PyrS2-3Thi-BztA-Gln-NH2], in data set [1], the “Solubility” value worked out at 46 µM (≈ 90.9 µg/mL). Also, the IC50 in data set [2] (setting [4]) and in data set [2] (read-out: beta-Catenin FP IC50) was 1.44 µM throughout. Besides, in data set [3], the “CHI Log D” value turned out to be 1.802.
For the molecule `CCN(CC(=O)O)C[C@@H]1NC(=O)[C@H](CC(=O)O)NC(=O)C2(CCCC=CCCCOC(=O)N3CC[C@@](C(=O)N[C@@H](Cc4ccsc4)C(=O)N[C@@H](Cc4csc5ccccc45)C(=O)N[C@@H](CCC(N)=O)C(N)=O)(C3)NC(=O)[C@H](CC(N)=O)NC(=O)[C@H](Cc3ccccc3)NC(=O)[C@H](C)NC(=O)[C@H](C)NC1=O)CCCC=CC[C@]1(CCCN1C(C)=O)C(=O)N[C@@H](CC(=O)O)C(=O)N[C@@H](CC(C)(C)C)C(=O)N2` (stereo partly drawn) [I-965, Ac-PL3-Asp-Npg-B5-Asp-EtGA-Ala-Ala-Phe-Asn-PyrS2-3Thi-BztA-Gln-NH2], the “Solubility” value in data set [1] is 45 µM (≈ 88.9 µg/mL). Further, the IC50 in data set [2] (setting [4]) and in data set [2] (read-out: beta-Catenin FP IC50) was 1.78 µM each time. Besides, the “CHI Log D” value in data set [3] stood at 1.903.
`CCN(CC(=O)O)C[C@@H]1NC(=O)[C@H](CC(=O)O)NC(=O)C2(CCCC=CCCCOC(=O)N3CC[C@@](C(=O)N[C@@H](Cc4ccsc4)C(=O)N[C@@H](Cc4csc5ccccc45)C(=O)N[C@@H](CCC(N)=O)C(N)=O)(C3)NC(=O)[C@H](CO)NC(=O)[C@H](Cc3ccccc3)NC(=O)[C@H](C)NC(=O)[C@H](C)NC1=O)CCCC=CC[C@]1(CCCN1C(C)=O)C(=O)N[C@@H](CC(=O)O)C(=O)N[C@@H](CC(C)(C)C)C(=O)N2` (stereo partly drawn) [I-966, Ac-PL3-Asp-Npg-B5-Asp-EtGA-Ala-Ala-Phe-Ser-PyrS2-3Thi-BztA-Gln-NH2]: in data set [1], the “Solubility” value was determined as 43 µM (≈ 83.8 µg/mL). The IC50 in data set [2] (setting [4]) and in data set [2] (read-out: beta-Catenin FP IC50) was 2.02 µM each time. In addition, the “CHI Log D” value in data set [3] was determined as 1.791.
On to `CCN(CC(=O)O)C[C@@H]1NC(=O)[C@H](CC(=O)O)NC(=O)C2(CCCC=CCCCOC(=O)N3CC[C@@](C(=O)N[C@@H](Cc4ccsc4)C(=O)N[C@@H](Cc4csc5ccccc45)C(=O)N[C@@H](CCC(N)=O)C(N)=O)(C3)NC(=O)[C@H](CO)NC(=O)[C@H](Cc3ccccc3)NC(=O)[C@H](C)NC(=O)[C@H](C)NC1=O)CCCC=CC[C@]1(CCCN1C(C)=O)C(=O)N[C@@H](CC(=O)O)C(=O)N[C@@H](CC(C)(C)C)C(=O)N2` (stereo partly drawn) [I-967, Ac-PL3-Asp-Npg-B5-Asp-EtGA-Ala-Ala-Phe-Ser-PyrS2-3Thi-BztA-Gln-NH2], for which the “Solubility” value in data set [1] came to 45 µM (≈ 87.7 µg/mL). The IC50 in data set [2] (setting [4]) and in data set [2] (read-out: beta-Catenin FP IC50) was 1.74 µM in each case. Moreover, the “CHI Log D” value in data set [3] is 1.884.

The values are drawn from patent publication US20240116985A1, “STAPLED PEPTIDES AND METHODS THEREOF” (priority 2020, published 2024).
